Drawing on patent US12202826B2, “N-pyridinyl acetamide derivatives as inhibitors of the Wnt signaling pathway” (Redx Pharma PLC, priority 2014, dated 2025), this text covers IC50 for 52 compounds.

Molecules are shown by their SMILES.

In one assay the test system is L-Wnt cells (murine Wnt-3a) / Leading Light Wnt Reporter Cells (luciferase under control of Wnt pathway response elements). In words: Dual-Cell β-Catenin Reporter Assay. The format is cell-based, Mouse. Particulars: category of IC50; luciferase signal reduced to 50% of DMSO control. The protocol:
Dual-Cell β-Catenin Reporter Assay
Mouse L cells transfected to constitutively produce biologically active murine Wnt-3a, referred to as L-Wnt cells, were purchased from the American Type Culture Collection, ATCC, Manassas, VA (ATCC). These cells were cultured in DMEM supplemented with 10% FCS (Gibco/Invitrogen, Carlsbad, CA), 1% geneticin and 1% sodium pyruvate (Sigma) at 37° C. with 5% CO2. The cells were seeded into 96 well plates and treated with serial dilutions of compound diluted to 0.1% DMSO concentration. After 24 hours, cell supernatants were transferred to a 96 well plate previously seeded with Leading Light® Wnt Reporter Cells, stably transfected with a luciferase gene under control of Wnt pathway response elements. After a further 24 hours, cells are treated with One-glo luciferase assay system (Promega, Madison, WI) and the luminescent signal read by envision. The IC50 of the compound is determined as the concentration that reduces the induced luciferase signal to 50% of the DMSO control.
The category “+” refers to compounds with an IC50 of >100 μM. The category “++” refers to compounds with an IC50 of 5 to 100 μM. The category “+++” refers to compounds with an IC50<5 μM.
(In general: In a reporter assay the amount or activity of a reporter protein is the signal.)
On to `Cc1nn(CC(=O)Nc2ccc(-c3ccc(C#N)nc3)cn2)c(C)c1-c1ccnc(C(F)(F)F)c1` [compound 66], for which the IC50 – broadly, the midpoint of a concentration-inhibition curve – was under 5 nM. For the compound `Cc1nn(CC(=O)Nc2ccc(-c3ncccn3)cn2)c(C)c1-c1ccnc(C(F)(F)F)c1` [compound 65], the IC50 is under 5 nM. In turn, `COc1cc(-c2cnccn2)cnc1NC(=O)Cn1nc(C)c(-c2ccnc(C(F)(F)F)c2)c1C` [compound 77] came in with an IC50 of 5 to 100 nM.

The compound `O=C(Cn1cnc(C2=CCNCC2)c1)Nc1ccc(-c2cnccn2)cn1` [compound 42] displayed a concentration for half-maximal inhibition (IC50) of over 100 nM.

`O=C(Cn1cc(-c2cn[nH]c2)cn1)Nc1ccc(-c2cnccn2)cn1` [compound 33] registered a 50% inhibitory concentration (IC50) of over 100 nM. Still for that read-out and setting: for `Cc1c(-c2ccnc(C(F)(F)F)c2)ncn1CC(=O)Nc1ccc(-c2cccnc2)cn1` [compound 108] the value was under 5 nM.

Take `O=C(Cn1cc(-c2ccnn2C2CCCC2)cn1)Nc1ccc(-c2cnccn2)cn1` [compound 45]: the IC50 is over 100 nM. The same measure, in the same setting: then `Cc1nn(CC(=O)Nc2ccc(-c3cnccn3)cn2)c(C)c1C1=CCNCC1` [compound 53], with over 100 nM; and `O=C(Cn1cnc(-c2ccnc(C(F)(F)F)c2)c1)Nc1ccc(-c2cnccn2)nc1` [compound 13], with 5 to 100 nM; and `Cc1nn(CC(=O)Nc2ccc(-c3cnccn3)cn2)c(C)c1C1CCOCC1` [compound 40], with under 5 nM.

`Cc1cc(-c2c(C)nn(CC(=O)Nc3ccc(-c4cnccn4)cn3)c2C)ccn1` [compound 44] displayed a concentration for half-maximal inhibition (IC50) of under 5 nM. Turning to `O=C(Cn1cc(C2=CCOCC2)c(C(F)(F)F)n1)Nc1ccc(-c2cnccn2)cn1` [compound 88], the half-inhibitory concentration (IC50) is under 5 nM. As to `Cc1nn(C(=O)C(C)(C)Nc2ccc(-c3cnccn3)cn2)c(C)c1C1=CCCOC1` [compound 83], the half-maximal inhibitory concentration (IC50) is 5 to 100 nM. Same read-out and setting: then `Cc1nn(CC(=O)Nc2ccc(-c3cnccn3)cn2)c(C)c1-c1cnn(C2CC2)c1` [compound 58], with 5 to 100 nM. `Cc1c(-c2ccnc(C(F)(F)F)c2)ncn1CC(=O)Nc1ccc(-c2cncnc2)cn1` [compound 104] returned an IC50 of under 5 nM. As to `Cc1nn(CC(=O)Nc2ccc(-c3cncnc3)cn2)c(C)c1-c1ccc(N(C)C)nc1` [compound 102], the IC50 was 5 to 100 nM. The compound `Cc1nn(CC(=O)Nc2ccc(-c3cnccn3)cn2)c(C)c1C1CC(C)OC(C)C1` (centres unmarked) [compound 92] showed a half-maximal inhibitory concentration (IC50) of 5 to 100 nM. As to `Cc1nn(CC(=O)Nc2ccc(-c3ccnc(C#N)c3)cn2)c(C)c1-c1ccnc(C(F)(F)F)c1` [compound 71], the IC50 was under 5 nM. In the case of `Cc1nn(CC(=O)Nc2ccc(-c3cnccn3)cn2)c(C)c1-c1ccnn1C` [compound 50], the IC50 was 5 to 100 nM. As to `Cc1nc(-c2ccnc(C(F)(F)F)c2)cn1CC(=O)Nc1ccc(-c2cnccn2)cn1` [compound 68], the IC50 was under 5 nM. Still for that read-out and setting: then `Cc1nn(CC(=O)Nc2ccc(-c3ccnn3C)cn2)c(C)c1-c1ccnc(C(F)(F)F)c1` [compound 55], with under 5 nM; and `O=C(Cn1cc(-c2ccnc(C(F)(F)F)n2)cn1)Nc1ccc(-c2cnccn2)cn1` [compound 37], with under 5 nM; and `Cn1nccc1-c1cnn(CC(=O)Nc2ccc(-c3cnccn3)cn2)c1` [compound 26], with 5 to 100 nM. The compound `Cc1nn(CC(=O)Nc2ccc(-c3cnccn3)cn2)cc1C1=CCOCC1` [compound 89] had an IC50 of 5 to 100 nM. In turn, `O=C(Cn1cc(-c2ccnc(C(F)(F)F)c2)c(C(F)(F)F)n1)Nc1ccc(-c2cnccn2)cn1` [compound 95] gave an IC50 of under 5 nM. On the same count and under the same terms, then `Cc1cc(-c2cnccn2)cnc1NC(=O)Cn1nc(C)c(-c2ccnc(C(F)(F)F)c2)c1C` [compound 76], with over 100 nM; and `Cc1cn(CC(=O)Nc2ccc(-c3cnccn3)cn2)nc1-c1ccnc(C(F)(F)F)c1` [compound 67], with under 5 nM. As for `COc1ccc(-c2ccc(NC(=O)Cn3cc(-c4ccnc(C(F)(F)F)c4)c(C)n3)nc2)cn1` [compound 98], the IC50 fell in the range of 5 to 100 nM. In turn, `Cc1nn(CC(=O)Nc2ccc(-c3cnccn3)cn2)c(C)c1C1=CC(C)OC(C)C1` (centres unmarked) [compound 82] registered an IC50 of under 5 nM.

The compound `Cc1cc(-c2csc(CC(=O)Nc3ccc(-c4cnccn4)cn3)c2)ccn1` [compound 24] yielded a concentration for half-maximal inhibition (IC50) of under 5 nM. Still for that read-out and setting: for `Cc1cc(-c2c(C)nn(CC(=O)Nc3ccc(-c4cnccn4)cn3)c2C)cnn1` [compound 51] the value was 5 to 100 nM; for `Cc1nn(CC(=O)Nc2ccc(-c3cncnc3)cn2)c(C)c1C1=CC(C)OC(C)C1` (centres unmarked) [compound 84], under 5 nM; for `Cc1c(-c2ccnc(C(F)(F)F)c2)ncn1CC(=O)Nc1ccc(-c2ncccn2)cn1` [compound 105], under 5 nM. `Cc1nn(CC(=O)Nc2ccc(-c3ccnc(N(C)C)c3)cn2)cc1-c1ccnc(C(F)(F)F)c1` [compound 94] yielded a half-inhibitory concentration (IC50) of 5 to 100 nM.

`Cc1nn(CC(=O)Nc2ncc(-c3cnccn3)cc2F)c(C)c1-c1ccnc(C(F)(F)F)c1` [compound 73]: the half-inhibitory concentration (IC50) is 5 to 100 nM. `Cc1nn(CC(=O)Nc2ccc(-c3ncccn3)cn2)c(C)c1C1=CC(C)OC(C)C1` (centres unmarked) [compound 85] gave an IC50 of 5 to 100 nM. Regarding `Cc1nn(CC(=O)Nc2ccc(-c3ccccc3C#N)cn2)c(C)c1-c1ccnc(C(F)(F)F)c1` [compound 59], the half-maximal inhibitory concentration (IC50) is under 5 nM. On the same count and under the same terms, then `Cc1nn(CC(=O)Nc2ccc(C3=CCOCC3)cn2)c(C)c1-c1ccnc(C(F)(F)F)c1` [compound 49], with 5 to 100 nM; and `Cc1nn(CC(=O)Nc2ccc(-c3cnccn3)cn2)c(C)c1-c1cc(Cl)ncn1` [compound 57], with 5 to 100 nM; and `O=C(Cc1cc(C2=CCOCC2)cs1)Nc1ccc(-c2cnccn2)cn1` [compound 28], with 5 to 100 nM. On the same count and under the same terms, for `Cc1cc(-c2cn(CC(=O)Nc3ccc(-c4cnccn4)cn3)nc2C)ccn1` [compound 90] the value was under 5 nM; for `Cc1nccc(-c2cnn(CC(=O)Nc3ccc(-c4cnccn4)cn3)c2)n1` [compound 38], 5 to 100 nM. The same measure, in the same setting: for `Cc1nn(CC(=O)Nc2ccc(-c3cnccn3)cn2)c(C)c1-c1cc(N(C)C)nc(C(F)(F)F)n1` [compound 78] the value was under 5 nM; for `Cc1nn(CC(=O)Nc2ccc(-c3ccc(N(C)C)nc3)cn2)cc1-c1ccnc(C(F)(F)F)c1` [compound 99], under 5 nM; for `Cc1nn(CC(=O)Nc2ccc(-c3cnccn3)cn2)c(C)c1C1=CCN(C(=O)OC(C)(C)C)CC1` [compound 46], 5 to 100 nM. `CC(=O)Nc1ccc(-c2ccc(NC(=O)Cn3cc(-c4ccnc(C(F)(F)F)c4)c(C)n3)nc2)cn1` [compound 103] came in with an IC50 of under 5 nM. As to `Cc1cc(-c2ncn(CC(=O)Nc3ccc(-c4cnccn4)cn3)c2C)ccn1` [compound 87], the IC50 was under 5 nM. Same read-out and setting: then `Cc1cc(-c2cnn(CC(=O)Nc3ccc(-c4cnccn4)cn3)c2)ncn1` [compound 39], with over 100 nM. Turning to `CC(C)n1nccc1-c1cnn(CC(=O)Nc2ccc(-c3cnccn3)cn2)c1` [compound 43], the 50% inhibitory concentration (IC50) was over 100 nM.

As for `O=C(Cn1cc(-c2cc(C(F)(F)F)ncn2)cn1)Nc1ccc(-c2cnccn2)cn1` [compound 41], the IC50 lay in the range of 5 to 100 nM. Still for that read-out and setting: for `Cc1c(-c2ccnc(F)c2)ncn1CC(=O)Nc1ccc(-c2cnccn2)cn1` [compound 110] the value was under 5 nM; for `O=C(Cc1cc(-c2ccnc(C(F)(F)F)c2)cs1)Nc1ccc(-c2cnccn2)cn1` [compound 23], under 5 nM.

Staying with this assay, now noted: luciferase signal reduced to 50% of DMSO control.
Compound `O=C(Cc1cc(-c2ccnc(C(F)(F)F)c2)cs1)Nc1ccc(-c2cnccn2)cn1` [compound 23] yielded a 50% inhibitory concentration (IC50) of 0.34 nM.
